Data from US20100056516A1 (priority 2006, published 2010).

What was measured:
HIV integrase = HIV integrase (Human immunodeficiency virus type 1 group M subtype B, UniProt P04585); experiment: integrase strand transfer assay (STA); format: biochemical; conditions: integrase strand transfer; read-out: IC50 in the STA assay
HXB2 virus = experiment: microbe, parasite or virus in culture; format: cell-based, HIV; conditions: Human immunodeficiency virus 1, HXB2, HeLaP4-2, read-out: antiviral IC50 (SCIA-B)
Protocol: An assay for measuring the inhibition of acute HIV infection with HeLa P4-2 cells in a single cycle infectivity assay (SCIA-A) was conducted in accordance with Joyce, J. G., et al., J. Biol. Chem., 2002, 277, 45811, Hazuda, D. J. et al., Science, 2000, 287, 646, and Kimpton, J. et al, J. Virol. 1992, 66, 2232. Infectious virus was produced by transfecting 293T cells with HIV proviral DNA in which the integrase gene was derived from a IIIB isolate and the remainder of the HIV genome was derived from the NL4-3 isolate.
This assay B for measuring the inhibition of acute HIV infection with HeLa P4-2 cells in a single cycle infectivity assay (SCIA-B) is essentially the same as Assay A described above, except that HXB2 virus is employed instead of the IIIb isolate.

CC(=O)c1c(O)c2cccnc2n(O)c1=O [Example 93, 3-acetyl-1,4-dihydroxy-1,8-naphthyridin-2(1H)-one]
IC50 (HIV integrase): > 50 µM
IC50 (HXB2 virus): < 100 µM

CCOC(=O)c1c(CCc2ccccc2)c2cccnc2n(O)c1=O [Example 240, ethyl 1-hydroxy-2-oxo-4-(2-phenylethyl)-1,2-dihydro-1,8-naphthyridine-3-carboxylate]
IC50 (HIV integrase): < 50 µM
IC50 (HXB2 virus): < 100 µM

CS(=O)(=O)NCc1ccc(-c2cc(=O)n(O)c3ncccc23)cc1 [Example 189, N-[4-(1-hydroxy-2-oxo-1,2-dihydro-1,8-naphthyridin-4-yl)benzyl]methanesulfo-namide]
IC50 (HIV integrase): < 50 µM
IC50 (HXB2 virus): < 100 µM

N#Cc1ccc(-c2c(O)c3cccnc3n(O)c2=O)cc1 [Example 45, 4-(1,4-dihydroxy-2-oxo-1,2-dihydro-1,8-naphthyridin-3-yl)benzonitrile]
IC50 (HIV integrase): < 50 µM
IC50 (HXB2 virus): < 100 µM

CCOC(=O)c1cnc2c(c1)c(O)c(C(=O)NCc1ccccc1)c(=O)n2O [Example 92, Ethyl 6-[(benzylamino)carbonyl]-5,8-dihydroxy-7-oxo-7,8-dihydro-1,8-naphthyridine-3-carboxylate]
IC50 (HIV integrase): < 50 µM
IC50 (HXB2 virus): < 100 µM

O=C(Nc1cccnc1)c1c(O)c2cccnc2n(O)c1=O [Example 16, 1,4-Dihydroxy-2-oxo-N-pyridin-3-yl-1,2-dihydro-1,8-naphthyridine-3-carboxamide]
IC50 (HIV integrase): < 50 µM
IC50 (HXB2 virus): < 100 µM

O=c1cc(O)c2c(-c3cccc(O)c3)ccnc2n1O [Example 226, 1,4-dihydroxy-5-(3-hydroxyphenyl)-1,8-naphthyridin-2(1H)-one]
IC50 (HIV integrase): < 50 µM
IC50 (HXB2 virus): < 100 µM

COc1ccccc1-c1c(O)c2cccnc2n(O)c1=O [Example 39, 1,4-Dihydroxy-3-(2-methoxyphenyl)-1,8-naphthyridin-2(1H)-one]
IC50 (HIV integrase): < 50 µM
IC50 (HXB2 virus): < 100 µM

CCOC(=O)c1c(N)c2cccnc2n(O)c1=O [Example 97, Ethyl 4-amino-1-hydroxy-2-oxo-1,2-dihydro-1,8-naphthyridine-3-carboxylate]
IC50 (HIV integrase): < 50 µM
IC50 (HXB2 virus): < 100 µM

O=C(NCc1ccccc1)c1cnc2c(c1)c(O)c(C(=O)NCc1ccccc1)c(=O)n2O [Example 87, N,N′-Dibenzyl-1,4-dihydroxy-2-oxo-1,2-dihydro-1,8-naphthyridine-3,6-dicarboxamide]
IC50 (HIV integrase): < 50 µM
IC50 (HXB2 virus): < 100 µM

Cc1cc(C)n(-c2cccc(-c3ccnc4c3c(O)cc(=O)n4O)c2)n1 [Example 229, 5-[3-(3,5-dimethyl-1H-pyrazol-1-yl)phenyl]-1,4-dihydroxy-1,8-naphthyridin-2(1H)-one]
IC50 (HIV integrase): < 50 µM
IC50 (HXB2 virus): < 100 µM

O=c1cc(NCc2ccccc2Cl)c2cccnc2n1O [Example 141, 4-[(2-chlorobenzyl)amino]-1-hydroxy-1,8-naphthyridin-2(1H-one)]
IC50 (HIV integrase): < 50 µM
IC50 (HXB2 virus): < 100 µM

O=c1cc(Nc2cccc(-c3ccccc3)c2)c2cccnc2n1O [Example 105, 4-(Biphenyl-3-ylamino)-1-hydroxy-1,8-naphthyridin-2(1H)-one]
IC50 (HIV integrase): < 50 µM
IC50 (HXB2 virus): < 100 µM

O=c1cc(NCc2ccccc2)c2cccnc2n1O [Example 126, 4-(benzylamino)-1-hydroxy-1,8-naphthyridin-2(1H)-one]
IC50 (HIV integrase): < 50 µM
IC50 (HXB2 virus): < 100 µM

CCOC(=O)c1c(O)c2c(Cc3cccc(-c4cccc(CN)c4)c3)ccnc2n(O)c1=O [Example 249, ethyl 5-{[3′-(aminomethyl)biphenyl-3-yl]methyl}-1,4-dihydroxy-2-oxo-1,2-dihydro-1,8-naphthyridine-3-carboxylate]
IC50 (HIV integrase): < 50 µM
IC50 (HXB2 virus): < 100 µM

CN(C)C(=O)CNCc1cccc(-c2cc(=O)n(O)c3ncccc23)c1 [Example 209, 2-{[3-(1-hydroxy-2-oxo-1,2-dihydro-1,8-naphthyridin-4-yl)benzyl]amino}-N,N-dimethylacetamide]
IC50 (HIV integrase): < 50 µM
IC50 (HXB2 virus): < 100 µM

CCOC(=O)N1CCC(Nc2cc(=O)n(O)c3ncccc23)CC1 [Example 109, Ethyl 4-[(1-hydroxy-2-oxo-1,2-dihydro-1,8-naphthyridin-4-yl)amino]piperidine-1-carboxylate]
IC50 (HIV integrase): < 50 µM
IC50 (HXB2 virus): < 100 µM

CN(Cc1ccccc1)C(=O)c1c(O)c2cccnc2n(O)c1=O [Example 7, N-Benzyl-1,4-dihydroxy-N-methyl-2-oxo-1,2-dihydro-1,8-naphthyridine-3-carboxamide]
IC50 (HIV integrase): < 50 µM
IC50 (HXB2 virus): < 100 µM

O=c1c(-c2ccccc2O)c(O)c2cccnc2n1O [Example 46, 1,4-dihydroxy-3-(2-hydroxyphenyl)-1,8-naphthyridin-2(1H)-one]
IC50 (HIV integrase): < 50 µM
IC50 (HXB2 virus): < 100 µM

CCOC(=O)c1c(O)c2cc(Br)cnc2n(O)c1=O [Example 3, Ethyl 6-bromo-1,4-dihydroxy-2-oxo-1,2-dihydro-1,8-naphthyridine-3-carboxylate]
IC50 (HIV integrase): < 50 µM
IC50 (HXB2 virus): < 100 µM

CNC(=O)c1c(N)c2cccnc2n(O)c1=O [Example 221, 4-Amino-1-hydroxy-N-methyl-2-oxo-1,2-dihydro-1,8-naphthyridine-3-carboxamide]
IC50 (HIV integrase): < 50 µM
IC50 (HXB2 virus): < 100 µM

CN(C(=O)c1c(O)c2cccnc2n(O)c1=O)C1CCN(C(=O)OC(C)(C)C)CC1 [Example 9]
IC50 (HIV integrase): < 50 µM
IC50 (HXB2 virus): < 100 µM

O=c1c2ccc(-c3ccccc3)cc2c2cccnc2n1O [Example 267, 5-Hydroxy-9-phenylbenzo[c]-1,8-naphthyridin-6(5.H)-one]
IC50 (HIV integrase): < 50 µM
IC50 (HXB2 virus): < 100 µM

O=C(c1cccc(-c2cc(=O)n(O)c3ncccc23)c1)N1CCOCC1 [Example 179, 1-hydroxy-4-[3-(morpholin-4-ylcarbonyl)phenyl]-1,8-naphthyridin-2(1H)-one]
IC50 (HIV integrase): < 50 µM
IC50 (HXB2 virus): < 100 µM

CN1C(=O)c2c(c3cccnc3n(O)c2=O)NC1c1cccc(CN2CCOCC2)c1 (stereo not drawn) [Example 219, 6-Hydroxy-3-methyl-2-[3-(morpholin-4-ylmethyl)phenyl]-2,3-dihydropyrimido[5,4-c]-1,8-naphthyridine-4,5(1H, 6H)dione]
IC50 (HIV integrase): < 50 µM
IC50 (HXB2 virus): < 100 µM

O=C(c1cccc(-c2cc(=O)n(O)c3ncccc23)c1)N1CCCC1 [Example 195, 1-hydroxy-4-[3-(pyrrolidin-1-ylcarbonyl)phenyl]-1,8-naphthyridin-2(1H)-one]
IC50 (HIV integrase): < 50 µM
IC50 (HXB2 virus): < 100 µM

CCOC(=O)Cc1c(O)c2cccnc2n(O)c1=O [Example 223, Ethyl (1,4-dihydroxy-2-oxo-1,2-dihydro-1,8-naphthyridin-3-yl)acetate]
IC50 (HIV integrase): < 50 µM
IC50 (HXB2 virus): < 100 µM

O=c1cc(Nc2ccccc2-c2ccccc2)c2cccnc2n1O [Example 104, 4-(Biphenyl-2-ylamino)-1-hydroxy-1,8-naphthyridin-2(1H)-one]
IC50 (HIV integrase): < 50 µM
IC50 (HXB2 virus): < 100 µM

CN(C)C(=O)c1c(O)c2cccnc2n(O)c1=O [Example 5, 1,4-Dihydroxy-N,N-dimethyl-2-oxo-1,2-dihydro-1,8-naphthyridine-3-carboxamide]
IC50 (HIV integrase): < 50 µM
IC50 (HXB2 virus): < 100 µM

O=C1N[C@H]2CCCC[C@@H]2Nc2c1c(=O)n(O)c1ncccc21 [Example 169, (8aS, 12aS)-5-hydroxy-8,8a,9,10,11,12,12a,13-octahydro-5H-[1,8]naphthyridino[4,3-b][1,5]benzodiazepine-6,7-dione]
IC50 (HIV integrase): < 50 µM
IC50 (HXB2 virus): < 100 µM
